Values after ≈ are worked out from the molar mass of the structure shown. Where two headings read alike, the source gives them in different places.
Key:
Format in all cases: cell-based
Fusarium graminearum [1] = assay: microbe, parasite or virus in culture; conditions: for EC50: Fusarium graminearum, 72 h; for ATI: ZJS178 as standard reagent, B = pydiflumetofen
Fusarium oxysporum [2] = assay: microbe, parasite or virus in culture; conditions: for EC50: Fusarium oxysporum, 72 h
[3] = test system: tebuconazole-sensitive Fusarium graminearum (TS); assay: microbe, parasite or virus in culture; conditions: for EC50: Fusarium graminearum, 72 h; for Actual Toxicity Index (ATI): ZJS178 as standard reagent, TS strain
[4] = test system: F. oxysporum f.sp. lycopersici; conditions: B = azoxystrobin; for ATI: ZJS178 as standard reagent; for EC50: mycelial growth, PDA with 50 μg/mL SHAM, 25° C., 3 days
Protocol: Test object: F. oxysporum f.sp. lycopersici isolated from diseased tomatoes from the field. The tested strains were identified by morphology and pathogenicity, and then stored in the laboratory for future use.
(§1) The above-mentioned F. oxysporum f.sp. lycopersici was inoculated on a PDA medium, and 50 μg/mL salicylhydroxamic acid (SHAM) was added to the culture medium to inhibit the […] bypass respiration.

Fusarium fujikuroi [5] = conditions: B = fludioxonil; for EC50: Fusarium fujikuroi, 72 h, mycelial growth, PDA, 25° C., 3 days; for ATI: ZJS178 as standard reagent
Text: Test object: Fusarium fujikuroi preserved in a culture room of the laboratory.
(§2) The bioassay method was referred to the description in Example 9.

Fusarium oxysporum [6] = conditions: B = fludioxonil; for EC50: Fusarium oxysporum, 72 h, mycelial growth, PDA, 25° C., 3 days; for ATI: ZJS178 as standard reagent
Text: Test object: Fusarium oxysporum preserved in the laboratory.
as §2

Fusarium fujikuroi [7] = assay: microbe, parasite or virus in culture; conditions: for EC50: Fusarium fujikuroi, 72 h
Fusarium graminearum [8] = assay: microbe, parasite or virus in culture; conditions: for ATI: B = prochloraz; for EC50: Fusarium graminearum
Fusarium oxysporum [9] = assay: microbe, parasite or virus in culture
Fusarium moniliforme = conditions: B = pyraclostrobin; for EC50: Fusarium verticillioides, mycelial growth, method of Example 17; for ATI: ZJS178 as standard reagent
Protocol: as §1
Test object: Fusarium moniliforme preserved in a culture room of the laboratory. The bioassay method was referred to the description in Example 17.

[10] = test system: F. oxysporum f.sp. niveum; conditions: for EC50: Fusarium oxysporum, 72 h
[11] = test system: metconazole-resistance Fusarium fujikuroi(MR); assay: microbe, parasite or virus in culture
[12] = test system: metconazole-sensitive Fusarium fujikuroi(MS); assay: microbe, parasite or virus in culture

**Q.** With CON(C(=O)c1cn(C)nc1C(F)F)C(C)Cc1c(Cl)cc(Cl)cc1Cl (racemic) [Pydiflumetofen, 3-(difluoromethyl)-N-methoxy-1-methyl-N-[(RS)-1-methyl-2-(2,4,6-trichlorophenyl)ethyl]pyrazole-4-carboxamide, reference compound] as the compound, how does the EC50 (Fusarium graminearum [1]) read?
**A.** Its EC50 is 0.319 µg/mL (≈ 0.748 µM).

**Q.** And the ATI (Fusarium graminearum [1])?
**A.** Its ATI is 11.88.

**Q.** CC(C)(C)C(O)(CCc1ccc(Cl)cc1)Cn1cncn1 (racemic) [Tebuconazole (B), (RS)-1-p-chlorophenyl-4,4-dimethyl-3-(1H-1,2,4-triazol-1-ylmethyl)pentan-3-ol, reference compound] was tested. Which ATI (Fusarium oxysporum [2]) did it give?
**A.** The ATI was 14.46.

**Q.** What about the EC50 (Fusarium oxysporum [2]) of the same compound?
**A.** The EC50 was 0.276 µg/mL (≈ 0.896 µM).

**Q.** What about the EC50 [3] of the same compound?
**A.** Its EC50 is 0.175 µg/mL (≈ 0.567 µM).

**Q.** And the “Actual Toxicity Index (ATI)” value [3]?
**A.** The value was 22.05.

**Q.** What does the source list for CO/C=C(/C(=O)OC)c1ccccc1Oc1cc(Oc2ccccc2C#N)ncn1 [Azoxystrobin (B), (E)-methyl 2-{2-[6-(2-cyanophenoxy)pyrimidin-4-yloxy]phenyl}-3-strobilurin, reference compound]?
**A.** ATI [4]: 5.59; EC50 [4]: 0.8247 µg/mL

**Q.** With N#Cc1c[nH]cc1-c1cccc2c1OC(F)(F)O2 [Fludioxonil (B), 4-(2,2-difluoro-1,3-benzodioxol-4-yl) pyrrole-3-carbonitrile, reference compound] as the compound, how does the EC50 (Fusarium fujikuroi [5]) read?
**A.** The EC50 was 0.0529 µg/mL (≈ 0.213 µM).

**Q.** And the ATI (Fusarium fujikuroi [5])?
**A.** The ATI was 90.93.

**Q.** What about the EC50 (Fusarium oxysporum [6]) of the same compound?
**A.** Its EC50 is 0.0683 µg/mL (≈ 0.275 µM).

**Q.** And the ATI (Fusarium oxysporum [6])?
**A.** Its ATI is 128.55.

**Q.** Which results are given for Cc1nn(C)c(F)c1C(=O)Nc1ccccc1C(C)CC(C)C (centres unmarked) [Penflufen (B), 5-fluoro-1,3-dimethyl-N-[2-(4-methylpentan-2-yl)phenyl]-1H-pyrazole-4-carboxamide, reference compound]?
**A.** ATI (Fusarium fujikuroi [7]): 22.85; EC50 (Fusarium fujikuroi [7]): 0.294 µg/mL (≈ 0.925 µM)

**Q.** What does the source list for CCCN(CCOc1c(Cl)cc(Cl)cc1Cl)C(=O)n1ccnc1 [Prochloraz (B), N-propyl-N-[2-(2,4,6-trichlorophenoxy)ethyl]-imidazole-1-carboxamide, reference compound]?
**A.** ATI (Fusarium graminearum [8]): 11.88; EC50 (Fusarium graminearum [8]): 0.319 µg/mL (≈ 0.847 µM)

**Q.** How did the ATI (Fusarium oxysporum [9]) turn out when CCCN(CCOc1c(Cl)cc(Cl)cc1Cl)C(=O)n1ccnc1.CCCN(CCOc1c(Cl)cc(Cl)cc1Cl)C(=O)n1ccnc1.CCCN(CCOc1c(Cl)cc(Cl)cc1Cl)C(=O)n1ccnc1.CCCN(CCOc1c(Cl)cc(Cl)cc1Cl)C(=O)n1ccnc1.[Cl][Mn][Cl] [Prochloraz-manganese chloride, reference compound] was run?
**A.** The ATI was 14.46.

**Q.** And the EC50 (Fusarium oxysporum [9])?
**A.** The EC50 was 0.2758 µg/mL.

**Q.** For COC(=O)N(OC)c1ccccc1COc1ccn(-c2ccc(Cl)cc2)n1 [Pyraclostrobin (B), methyl N-[2-[[1-(4-chlorophenyl)pyrazol-3-yl]oxymethyl]phenyl]-N-methoxycarbamate, reference compound], which EC50 (Fusarium moniliforme) is on record?
**A.** Its EC50 is 4.99 µg/mL (≈ 12.9 µM).

**Q.** What about the ATI (Fusarium moniliforme) of the same compound?
**A.** The ATI was 13.61.

**Q.** Which EC50 [10] does the source give for COC(=O)NC(=S)Nc1ccccc1NC(=S)NC(=O)OC [Thiophanate-, 1,2-bis (3-carbomethoxy-2-thioureido)benzene, reference compound] here?
**A.** Its EC50 is 0.222 µg/mL (≈ 0.65 µM).

**Q.** Which results are given for CCOC(=O)/C(C#N)=C(\N)c1ccc(N(C)CC)cc1 [ZJS178 (A), ethyl 2-cyano-3-amino-3-[4-(N-ethyl-N-methylamino)phenyl]acrylate]?
**A.** EC50 (Fusarium fujikuroi [5]): 0.0481 µg/mL (≈ 0.176 µM); ATI (Fusarium fujikuroi [5]): 100.00; ATI (Fusarium oxysporum [9]): 100.00; EC50 (Fusarium oxysporum [9]; Fusarium oxysporum): 0.0399 µg/mL (≈ 0.146 µM); EC50 (Fusarium oxysporum [6]): 0.0878 µg/mL (≈ 0.321 µM); ATI (Fusarium oxysporum [6]): 100.00; EC50 ([4]; Fusarium oxysporum, 72 h, read-out: EC50): 0.0461 µg/mL; ATI [4]: 100.00; ATI (Fusarium oxysporum [2]): 100.00; EC50 (Fusarium oxysporum [2]): 0.0399 µg/mL (≈ 0.146 µM); EC50 (Fusarium graminearum [1]): 0.0379 µg/mL (≈ 0.139 µM); ATI (Fusarium graminearum [1]): 100.00; EC50 ([11]; Fusarium fujikuroi, 72 h): 0.0621 µg/mL (≈ 0.227 µM); ATI ([11]; ZJS178 as standard reagent, MR strain): 100.00; EC50 (Fusarium moniliforme): 0.678 µg/mL (≈ 2.48 µM); ATI (Fusarium moniliforme): 100.00; EC50 [3]: 0.0385 µg/mL (≈ 0.141 µM); Actual Toxicity Index (ATI) [3]: 100.00; ATI (Fusarium fujikuroi [7]): 100.00; EC50 (Fusarium fujikuroi [7]): 0.0671 µg/mL (≈ 0.245 µM); ATI (Fusarium graminearum [8]): 100.00; EC50 (Fusarium graminearum [8]): 0.0379 µg/mL (≈ 0.139 µM); ATI [12]: 100.00; EC50 ([12]; Fusarium fujikuroi, 72 h): 0.069 µg/mL (≈ 0.252 µM); EC50 [10]: 0.0569 µg/mL (≈ 0.208 µM); Actual Toxicity Index ([10]; ZJS178 as standard reagent, B = thiophanate-methyl): 100.00

— patent publication US20260026499A1 (priority 2022, published 2026)
